Assay results: patent publication US12643859B2, “Pyridyl oxycarboxylic acid oxime derivative and preparation method therefor, weeding composition and application thereof” (Qingdao Kingagroot Chemical Compound Co., Ltd., priority 2018, dated 2026)

Test system: Monocotyledonous and dicotyledonous weed seeds and main crop seeds
Assay: Post-emergence test experiment (Table 3, 1000 g a.i./ha)
Type: in vivo
Conditions: 3 weeks in greenhouse, fresh weight inhibition
Description: The above described growth inhibition rate is fresh weight inhibition rate.
Post-emergence test experiment: Monocotyledonous and dicotyledonous weed seeds and main crop seeds (i. e. wheat, corn, rice, soybean, cotton, oilseed, millet and sorghum.) were put into a plastic pot loaded with soil. Then covered with 0.5-2 cm soil, the seeds were allowed to grow in good greenhouse environment. The test plants were treated at 2-3 leaf stage 2 weeks after sowing. The test compounds of the invention were dissolved with acetone respectively, then added with tween-80, and using 1.5 liters per hectare of an emulsible concentrate of methyl oleate as a synergist, and diluted by certain amount of water to certain concentration. The solution was sprayed to the plants with a sprayer. Then the plants were cultured for 3 weeks in the greenhouse, and the experiment result of weed controlling effect was listed in tables 3-4.

| SMILES | Activity level (growth inhibition rate) Digitaria sanguinalis | Activity level (growth inhibition rate) Echinochloa crusgalli | Activity level (growth inhibition rate) Galium spurium | Activity level (growth inhibition rate) Leptochloa chinensis | Activity level (growth inhibition rate) Monochoria Vaginalis | Activity level (growth inhibition rate) Murdannia triquetra | Activity level (growth inhibition rate) Setaria viridis |
| --- | --- | --- | --- | --- | --- | --- | --- |
| CC(CCCl)=NOC(=O)C(C)Oc1nc(C)c(C)c(N)c1C (stereo not shown) [Compound 19] | 5 (Level 5: the growth inhibition rate is greater than 85%) | 5 (Level 5: the growth inhibition rate is greater than 85%) | 5 (Level 5: the growth inhibition rate is greater than 85%) | 5 (Level 5: the growth inhibition rate is greater than 85%) | 5 (Level 5: the growth inhibition rate is greater than 85%) | 5 (Level 5: the growth inhibition rate is greater than 85%) | 5 (Level 5: the growth inhibition rate is greater than 85%) |
| CCCC(C)=NOC(=O)C(Oc1nc(F)c(Cl)c(N)c1Cl)C1CC1 (stereo not shown) [Compound 28] | – | – | 5 (Level 5: the growth inhibition rate is greater than 85%) | – | 5 (Level 5: the growth inhibition rate is greater than 85%) | 5 (Level 5: the growth inhibition rate is greater than 85%) | – |
| CC(=NOC(=O)C(C)Oc1nc(F)c(Cl)c(N)c1Cl)c1ccc([N+](=O)[O-])cc1 (stereo not shown) [Compound 71] | 5 (Level 5: the growth inhibition rate is greater than 85%) | 5 (Level 5: the growth inhibition rate is greater than 85%) | 5 (Level 5: the growth inhibition rate is greater than 85%) | 5 (Level 5: the growth inhibition rate is greater than 85%) | 5 (Level 5: the growth inhibition rate is greater than 85%) | 5 (Level 5: the growth inhibition rate is greater than 85%) | 5 (Level 5: the growth inhibition rate is greater than 85%) |
| CC(Oc1nc(F)c(Cl)c(N)c1Cl)C(=O)ON=Cc1cccc([N+](=O)[O-])c1 (stereo not shown) [Compound 73] | 5 (Level 5: the growth inhibition rate is greater than 85%) | 5 (Level 5: the growth inhibition rate is greater than 85%) | 5 (Level 5: the growth inhibition rate is greater than 85%) | 5 (Level 5: the growth inhibition rate is greater than 85%) | 5 (Level 5: the growth inhibition rate is greater than 85%) | 5 (Level 5: the growth inhibition rate is greater than 85%) | 5 (Level 5: the growth inhibition rate is greater than 85%) |
| CC(Oc1nc(F)c(Cl)c(N)c1Cl)C(=O)ON=C(c1ccccc1)c1cccc(Cl)c1 (stereo not shown) [Compound 79] | 5 (Level 5: the growth inhibition rate is greater than 85%) | 5 (Level 5: the growth inhibition rate is greater than 85%) | 5 (Level 5: the growth inhibition rate is greater than 85%) | 5 (Level 5: the growth inhibition rate is greater than 85%) | 5 (Level 5: the growth inhibition rate is greater than 85%) | 5 (Level 5: the growth inhibition rate is greater than 85%) | 5 (Level 5: the growth inhibition rate is greater than 85%) |
| CC(Oc1nc(F)c(Cl)c(N)c1Cl)C(=O)ON=C(c1ccccc1)c1ccc(C2CC2)cc1 (stereo not shown) [Compound 80] | 5 (Level 5: the growth inhibition rate is greater than 85%) | 5 (Level 5: the growth inhibition rate is greater than 85%) | 5 (Level 5: the growth inhibition rate is greater than 85%) | 5 (Level 5: the growth inhibition rate is greater than 85%) | 5 (Level 5: the growth inhibition rate is greater than 85%) | 5 (Level 5: the growth inhibition rate is greater than 85%) | 5 (Level 5: the growth inhibition rate is greater than 85%) |
| CC(Oc1nc(F)c(Cl)c(N)c1Cl)C(=O)ON=C(c1ccccc1)c1ccc(C(F)(F)F)cc1 (stereo not shown) [Compound 81] | 5 (Level 5: the growth inhibition rate is greater than 85%) | 5 (Level 5: the growth inhibition rate is greater than 85%) | 5 (Level 5: the growth inhibition rate is greater than 85%) | 5 (Level 5: the growth inhibition rate is greater than 85%) | 5 (Level 5: the growth inhibition rate is greater than 85%) | 5 (Level 5: the growth inhibition rate is greater than 85%) | 5 (Level 5: the growth inhibition rate is greater than 85%) |
| CC(Oc1nc(F)c(Cl)c(N)c1Cl)C(=O)ON=C(c1ccc(Cl)cc1)c1cccc(F)c1 (stereo not shown) [Compound 82] | 5 (Level 5: the growth inhibition rate is greater than 85%) | 5 (Level 5: the growth inhibition rate is greater than 85%) | 5 (Level 5: the growth inhibition rate is greater than 85%) | 5 (Level 5: the growth inhibition rate is greater than 85%) | 5 (Level 5: the growth inhibition rate is greater than 85%) | 5 (Level 5: the growth inhibition rate is greater than 85%) | 5 (Level 5: the growth inhibition rate is greater than 85%) |
| CC(Oc1nc(F)c(Cl)c(N)c1Cl)C(=O)ON=C(c1ccccc1)c1ccc(F)cc1 (stereo not shown) [Compound 83] | 5 (Level 5: the growth inhibition rate is greater than 85%) | 5 (Level 5: the growth inhibition rate is greater than 85%) | 5 (Level 5: the growth inhibition rate is greater than 85%) | 5 (Level 5: the growth inhibition rate is greater than 85%) | 5 (Level 5: the growth inhibition rate is greater than 85%) | 5 (Level 5: the growth inhibition rate is greater than 85%) | 5 (Level 5: the growth inhibition rate is greater than 85%) |
| CCc1cccc(C(Cl)=NOC(=O)C(C)Oc2nc(F)c(Cl)c(N)c2Cl)c1 (stereo not shown) [Compound 85] | 5 (Level 5: the growth inhibition rate is greater than 85%) | 5 (Level 5: the growth inhibition rate is greater than 85%) | 5 (Level 5: the growth inhibition rate is greater than 85%) | 5 (Level 5: the growth inhibition rate is greater than 85%) | 5 (Level 5: the growth inhibition rate is greater than 85%) | 5 (Level 5: the growth inhibition rate is greater than 85%) | 5 (Level 5: the growth inhibition rate is greater than 85%) |
| CC(Oc1nc(F)c(Cl)c(N)c1Cl)C(=O)ON=C(Br)c1ccc(C#N)cc1 (stereo not shown) [Compound 86] | 5 (Level 5: the growth inhibition rate is greater than 85%) | 5 (Level 5: the growth inhibition rate is greater than 85%) | 5 (Level 5: the growth inhibition rate is greater than 85%) | 5 (Level 5: the growth inhibition rate is greater than 85%) | 5 (Level 5: the growth inhibition rate is greater than 85%) | 5 (Level 5: the growth inhibition rate is greater than 85%) | 5 (Level 5: the growth inhibition rate is greater than 85%) |
